Results taken from US11672799B2, “1,4-disubstituted pyridazine quinolne analogs there of and methods for treating SMN-deficiency-related conditions” (Novartis AG, priority 2013, dated 2023).
Read-outs that look alike come from different tables or passages of the source.

System: SMN protein
Assay: cellular SMN ELISA (SMN protein elevation) in myoblast cell line from SMNdelta7 mouse model
Assay type: cell-based
Description: A cellular SMN ELISA was used to measure the effects of low molecular weight compounds on SMN protein elevation. Cells from a myoblast cell line derived from the SMNdelta7 mouse model (kind gift from Steve Burden, NYU) were seeded into a 384-well plate at a density of 3000 cells/well and treated with compounds for 24 hours. ELISA capture plates were prepared by coating 384-well plates (Immulon 4HBX) with 0.5 ug/mL of anti-SMN mAb (BD Science, Catalog number 610647) at 4° C. overnight. The plates were washed 5 times with 110 uL of PBS-Tween (0.05% Tween-20, PBST), blocked with 100 uL of 1% BSA in PBST for 2 hours and washed (5 times) with 100 uL of PBST. After 24 hours of compound treatment cells were lysed in a modified RIPA-buffer, on ice for 1 hour. 20 uL of lysate and 20 uL of 1% BSA were then added to the ELISA capture plates and incubated at 4° C. overnight. Plates were washed (5 times) with PBST and then incubated with 1:100 dilution of primary rabbit anti-SMN polyclonal antibody (Santa cruz, Catalog number SC-15320) at room temperature for 1 hour and subsequently washed (5 times) with 110 uL of PBST. This was followed by addition of 1:100 Goat anti-Rabbit IgG-HRP linked (Cell Signaling, Catalog number 7074) secondary antibody for 1 hour. Plates were then washed with PBST and incubated with 40 uL TMB substrate (Cell Signaling, Catalog number 7004 L) at room temperature for 1-10 minutes with shaking. The reaction was stopped by addition of 40 uL of stop solution (Cell signaling, Catalog number 7002 L) and absorption was measured at 450 nm. Data was reported as fold activation over DMSO control, and EC50.
ELISA assay condition 1: compound concentration range 20 nM-10 uM; ELISA assay condition 2: compound concentration 100 pM-10 uM. Data generated in Biological Example 1 using ELISA conditions 1 or 2.

[1] = Biological Example 1, SMN ELISA, SMNdelta7 mouse myoblasts, 24 hours compound treatment
[2] = Biological Example 1, SMN ELISA, SMNdelta7 mouse myoblasts, 24 hours compound treatment, read-out: SMN Activity (EC50)
[3] = comparison of unsubstituted, ortho-hydroxy and ortho-alkoxy pyridazines, as in Biological Example 1
[4] = comparison of unsubstituted, ortho-hydroxy and ortho-alkoxy pyridazines, as in Biological Example 1, read-out: SMN ELISA EC50

CN(c1ccc(-c2cc3ncc(Cl)cc3cc2O)nn1)C1CC(C)(C)NC(C)(C)C1 [Example 15-1, 3-chloro-7-(6-(methyl(2,2,6,6-tetramethylpiperidin-4-yl)amino)pyridazin-3-yl)quinolin-6-ol]
SMN Activity (fold activation over DMSO control) [1]: 2.68 fold
EC50 [2]: 16 nM

CN(c1ccc(-c2cc3c(=O)n(C)ccc3cc2O)nn1)C1CC(C)(C)NC(C)(C)C1 [Example 35-1, 6-hydroxy-2-methyl-7-(6-(methyl(2,2,6,6-tetramethylpiperidin-4-yl)amino)pyridazin-3-yl)isoquinolin-1(2H)-one]
SMN Activity (fold activation over DMSO control) [1]: 2.43 fold
EC50 [2]: 3 nM

CN(c1ccc(-c2cc3cc(C4CCOCC4)cnc3cc2O)nn1)C1CC(C)(C)NC(C)(C)C1 [Example 14-1, 6-(6-(methyl(2,2,6,6-tetramethylpiperidin-4-yl)amino)pyridazin-3-yl)-3-(tetrahydro-2H-pyran-4-yl)quinolin-7-ol]
SMN Activity (fold activation over DMSO control) [1]: 2.91 fold
EC50 [2]: 63 nM

Cc1cc(C2CCOCC2)c2cc(-c3ccc(N(C)C4CC(C)(C)NC(C)(C)C4)nn3)c(O)cc2n1 [Example 20-5, 2-methyl-6-(6-(methyl(2,2,6,6-tetramethylpiperidin-4-yl)amino)pyridazin-3-yl)-4-(tetrahydro-2H-pyran-4-yl)quinolin-7-ol]
SMN Activity (fold activation over DMSO control) [1]: 2.69 fold
EC50 [2]: 286 nM

CN(c1ccc(-c2cc3nccnc3cc2O)nn1)C1CC(C)(C)NC(C)(C)C1 [Example 13-1, 7-(6-(methyl(2,2,6,6-tetramethylpiperidin-4-yl)amino)pyridazin-3-yl)quinoxalin-6-ol]
SMN Activity (fold activation over DMSO control) [1]: 2.7 fold
EC50 [2]: 9 nM
Fold activation [3]: 2.7 —
EC50 [4]: 9 nM

Cc1cc2cc(O)c(-c3ccc(N4CCNCC4)nn3)cc2cn1 [Example 37-1, 3-methyl-7-(6-(piperazin-1-yl)pyridazin-3-yl)isoquinolin-6-ol]
SMN Activity (fold activation over DMSO control) [1]: 2.33 fold
EC50 [2]: 124 nM

Cc1ccc2cc(O)c(-c3ccc(N(C)C4CC(C)(C)NC(C)(C)C4)nn3)cc2n1 [Example 6-2, 2-methyl-7-(6-(methyl(2,2,6,6-tetramethylpiperidin-4-yl)amino)pyridazin-3-yl)quinolin-6-ol]
SMN Activity (fold activation over DMSO control) [1]: 3.2 fold
EC50 [2]: 4 nM

COc1cc2cccnc2cc1-c1ccc(N(C)C2CC(C)(C)NC(C)(C)C2)nn1 [drawing 136 R = OMe, 6-(6-Methoxyquinolin-7-yl)-N-methyl-N-(2,2,6,6-tetramethylpiperidin-4-yl)pyridazin-3-amine]
Fold activation [3]: 1.7
EC50 [4]: 1170 nM

CN(c1ccc(-c2cc3c(Cl)ccnc3cc2O)nn1)C1CC(C)(C)NC(C)(C)C1 [Preparation 12, 4-chloro-6-(6-(methyl(2,2,6,6-tetramethylpiperidin-4-yl)amino)pyridazin-3-yl)quinolin-7-ol]
SMN Activity (fold activation over DMSO control) [1]: 2.6 fold
EC50 [2]: 30 nM

CN(c1ccc(-c2cc3cccnc3cc2O)nn1)C1CC(C)(C)NC(C)(C)C1 [Example 1-1, 6-(6-(Methyl(2,2,6,6-tetramethylpiperidin-4-yl)amino)pyridazin-3-yl)quinolin-7-ol]
SMN Activity (fold activation over DMSO control) [1]: 2.9 fold
EC50 [2]: 20 nM
Fold activation [3]: 2.9
EC50 [4]: 20 nM

Cc1cc(C#N)c2cc(-c3ccc(N(C)C4CC(C)(C)NC(C)(C)C4)nn3)c(O)cc2n1 [Example 20-2, 7-hydroxy-2-methyl-6-(6-(methyl(2,2,6,6-tetramethylpiperidin-4-yl)amino)pyridazin-3-yl)quinoline-4-carbonitrile]
SMN Activity (fold activation over DMSO control) [1]: 2.68 fold
EC50 [2]: 48 nM

Cc1cnc2cc(O)c(-c3ccc(N(C)C4CC(C)(C)NC(C)(C)C4)nn3)cc2n1 [Example 18-2, 2-methyl-7-(6-(methyl(2,2,6,6-tetramethylpiperidin-4-yl)amino)pyridazin-3-yl)quinoxalin-6-ol]
SMN Activity (fold activation over DMSO control) [1]: 3.31 fold
EC50 [2]: 9 nM

CN(c1ccc(-c2cc3ncccc3cc2O)nn1)C1CC(C)(C)NC(C)(C)C1 [Example 6-1, 7-(6-(methyl(2,2,6,6-tetramethylpiperidin-4-yl)amino)pyridazin-3-yl)quinolin-6-ol]
SMN Activity (fold activation over DMSO control) [1]: 2.82 fold
EC50 [2]: 7 nM
Fold activation [3]: 2.8
EC50 [4]: 7 nM

CN(c1ccc(-c2cc3cc(Cl)cnc3cc2O)nn1)C1CC(C)(C)NC(C)(C)C1 [Example 7-1, 3-chloro-6-(6-(methyl(2,2,6,6-tetramethylpiperidin-4-yl)amino)pyridazin-3-yl)quinolin-7-ol]
SMN Activity (fold activation over DMSO control) [1]: 2.8 fold
EC50 [2]: 14 nM

Cc1cnc2cc(-c3ccc(N(C)C4CC(C)(C)NC(C)(C)C4)nn3)c(O)cc2c1 [Example 15-3, 3-methyl-7-(6-(methyl(2,2,6,6-tetramethylpiperidin-4-yl)amino)pyridazin-3-yl)quinolin-6-ol]
SMN Activity (fold activation over DMSO control) [1]: 3.28 fold
EC50 [2]: 7 nM

Cc1cnc2cc(-c3ccc(N(C)C4CC(C)(C)NC(C)(C)C4)nn3)c(O)c(Br)c2c1 [Example 16-1, 5-bromo-3-methyl-7-(6-(methyl(2,2,6,6-tetramethylpiperidin-4-yl)amino)pyridazin-3-yl)quinolin-6-ol]
SMN Activity (fold activation over DMSO control) [1]: 2.44 fold
EC50 [2]: 258 nM

Cc1cnc2cc(-c3ccc(N(C)C4CC(C)(C)NC(C)(C)C4)nn3)c(O)cc2n1 [Example 18-3, 3-methyl-7-(6-(methyl(2,2,6,6-tetramethylpiperidin-4-yl)amino)pyridazin-3-yl)quinoxalin-6-ol]
SMN Activity (fold activation over DMSO control) [1]: 2.72 fold
EC50 [2]: 16 nM

CC1(C)CC(Oc2ccc(-c3cc4c(O)nccc4cc3O)nn2)CC(C)(C)N1 [Example 35-4, 7-(6-((2,2,6,6-tetramethylpiperidin-4-yl)oxy)pyridazin-3-yl)isoquinoline-1,6-diol]
SMN Activity (fold activation over DMSO control) [1]: 3.26 fold
EC50 [2]: 96 nM

COc1ccnc2cc(O)c(-c3ccc(N(C)C4CC(C)(C)NC(C)(C)C4)nn3)cc12 [Example 19-1, 4-methoxy-6-(6-(methyl(2,2,6,6-tetramethylpiperidin-4-yl)amino)pyridazin-3-yl)quinolin-7-ol]
SMN Activity (fold activation over DMSO control) [1]: 2.65 fold
EC50 [2]: 10 nM

CN(c1ccc(-c2ccc3cccnc3c2)nn1)C1CC(C)(C)NC(C)(C)C1 [drawing 136 R = H]
Fold activation [3]: 2.5
EC50 [4]: 370 nM

COc1ccnc2cc(-c3ccc(N(C)C4CC(C)(C)NC(C)(C)C4)nn3)c(O)cc12 [Example 12-1, 4-methoxy-7-(6-(methyl(2,2,6,6-tetramethylpiperidin-4-yl)amino)pyridazin-3-yl)quinolin-6-ol]
SMN Activity (fold activation over DMSO control) [1]: 2.4 fold
EC50 [2]: 3 nM

Cc1nc2cc(O)c(-c3ccc(N(C)C4CC(C)(C)NC(C)(C)C4)nn3)cc2nc1C [Example 18-1, 2,3-dimethyl-7-(6-(methyl(2,2,6,6-tetramethylpiperidin-4-yl)amino)pyridazin-3-yl)quinoxalin-6-ol]
SMN Activity (fold activation over DMSO control) [1]: 3.24 fold
EC50 [2]: 15 nM

CN(c1ccc(-c2cc3c(C#N)nccc3cc2O)nn1)C1CC(C)(C)NC(C)(C)C1 [Example 3-7, 6-hydroxy-7-(6-(methyl(2,2,6,6-tetramethylpiperidin-4-yl)amino)pyridazin-3-yl)isoquinoline-1-carbonitrile]
SMN Activity (fold activation over DMSO control) [1]: 2.9 fold
EC50 [2]: 2 nM

CN(c1ccc(-c2cc3nc(C(N)=O)ccc3cc2O)nn1)C1CC(C)(C)NC(C)(C)C1 [Example 26-6, 6-hydroxy-7-(6-(methyl(2,2,6,6-tetramethylpiperidin-4-yl)amino)pyridazin-3-yl)quinoline-2-carboxamide]
SMN Activity (fold activation over DMSO control) [1]: 2.6 fold
EC50 [2]: 7 nM

CCOc1cc(C)nc2cc(O)c(-c3ccc(N(C)C4CC(C)(C)NC(C)(C)C4)nn3)cc12 [Example 10-5, 4-Ethoxy-2-methyl-6-(6-(methyl(2,2,6,6-tetramethylpiperidin-4-yl)amino)pyridazin-3-yl)quinolin-7-ol]
SMN Activity (fold activation over DMSO control) [1]: 3.3 fold
EC50 [2]: 20 nM

CN(c1ccc(-c2ccc3cnccc3c2)nn1)C1CC(C)(C)NC(C)(C)C1 [drawing 138 R = H]
Fold activation [3]: 2.7
EC50 [4]: 320 nM

N#Cc1ccc2cc(O)c(-c3ccc(N4CCNCC4)nn3)cc2n1 [Example 27-1, 6-hydroxy-7-(6-(piperazin-1-yl)pyridazin-3-yl)quinoline-2-carbonitrile]
SMN Activity (fold activation over DMSO control) [1]: 2.49 fold
EC50 [2]: 46 nM
